Laboratory results as given in US12459932B2, “KIF18A inhibitors” (AMGEN INC., priority 2018, dated 2025).

Molecular target: T1, Recombinant human KIF18A (1-467 His-tagged) (Homo sapiens, UniProt Q8NI77)
T1 construct: Recombinant human KIF18A (1-467 His-tagged) protein; His
Assay: KIF18A Enzyme Assay: microtubule-stimulated ATPase activity (ADP-Glo)
Format: biochemical
Settings: 30 nM KIF18A, 30 μg/mL pig microtubules, ATP 75 μM (Km), ADP-Glo luminescence
Description: KIF18A Enzyme Assay: Microtubule-stimulated ATPase activity assay is used to measure KIF18A enzyme activity after treatment with compound. Compounds were 2-fold serially diluted in DMSO (Sigma Inc) over 22-point concentration range. […] The assay measures ADP formed from the ATPase reaction. […] Read luminescence using EnVision microplate reader with ultra-luminescence module (Perkin Elmer Inc). Concentration-response curve-fitting and IC50 determination was performed using Genedata Screener Software (Standard 15.0.1, Genedata Inc) with a four-parameter logistic regression fit model.

T1 sequence (Q8NI77 1-467): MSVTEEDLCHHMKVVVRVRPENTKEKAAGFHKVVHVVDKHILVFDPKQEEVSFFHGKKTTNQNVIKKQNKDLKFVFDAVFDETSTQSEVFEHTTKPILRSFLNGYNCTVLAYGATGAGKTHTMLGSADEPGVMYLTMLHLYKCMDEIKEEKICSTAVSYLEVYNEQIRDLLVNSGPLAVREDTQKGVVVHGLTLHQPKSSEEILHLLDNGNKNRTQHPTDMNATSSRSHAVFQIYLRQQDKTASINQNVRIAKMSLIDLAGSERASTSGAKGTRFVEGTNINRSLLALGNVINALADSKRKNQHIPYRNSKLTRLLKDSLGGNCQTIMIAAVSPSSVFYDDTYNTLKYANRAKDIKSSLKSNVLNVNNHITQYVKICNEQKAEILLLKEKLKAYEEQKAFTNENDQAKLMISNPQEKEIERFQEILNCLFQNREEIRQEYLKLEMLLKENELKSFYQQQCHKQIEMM
T1 sequence (P02550 whole entry partner): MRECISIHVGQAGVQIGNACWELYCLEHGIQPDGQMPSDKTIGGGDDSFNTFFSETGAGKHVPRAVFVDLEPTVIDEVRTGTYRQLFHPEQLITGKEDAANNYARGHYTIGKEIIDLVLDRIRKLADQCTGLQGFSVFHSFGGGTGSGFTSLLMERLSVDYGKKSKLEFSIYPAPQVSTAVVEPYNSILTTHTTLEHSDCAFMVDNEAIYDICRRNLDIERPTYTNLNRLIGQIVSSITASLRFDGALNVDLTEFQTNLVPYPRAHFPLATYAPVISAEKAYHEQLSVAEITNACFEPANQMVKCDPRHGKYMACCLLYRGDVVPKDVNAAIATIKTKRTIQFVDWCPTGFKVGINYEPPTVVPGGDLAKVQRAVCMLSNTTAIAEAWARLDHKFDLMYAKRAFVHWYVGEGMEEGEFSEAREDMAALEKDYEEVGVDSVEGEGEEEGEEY
T1 sequence (P02554 whole entry partner): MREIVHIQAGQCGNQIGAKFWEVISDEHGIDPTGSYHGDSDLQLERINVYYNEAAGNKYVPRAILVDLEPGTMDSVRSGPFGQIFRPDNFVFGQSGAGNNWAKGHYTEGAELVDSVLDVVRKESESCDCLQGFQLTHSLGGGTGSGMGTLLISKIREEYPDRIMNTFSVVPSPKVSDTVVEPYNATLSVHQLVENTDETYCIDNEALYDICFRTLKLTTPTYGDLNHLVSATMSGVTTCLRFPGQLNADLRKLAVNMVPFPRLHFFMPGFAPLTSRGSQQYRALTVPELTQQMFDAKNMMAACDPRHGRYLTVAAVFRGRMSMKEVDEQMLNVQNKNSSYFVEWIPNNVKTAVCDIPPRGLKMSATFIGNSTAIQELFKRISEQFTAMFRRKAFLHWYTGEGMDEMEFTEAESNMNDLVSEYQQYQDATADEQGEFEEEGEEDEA

Compound | IC50 [nM]
O=C(Nc1cccc(OCCC(F)(F)F)n1)c1ccc(S(=O)(=O)NCCO)cc1N1CCC2(CC1)CC2 [Example 1, 4-(N-(2-Hydroxyethyl)sulfamoyl)-2-(6-azaspiro[2.5]octan-6-yl)-N-(6-(3,3,3-trifluoropropoxy)pyridin-2-yl)benzamide] | 12
C[C@@H]1CN(c2cccc(NC(=O)c3ccc(S(=O)(=O)NCCO)cc3N3CCC4(CC3)CC4)n2)CCO1 [Example 1-1, (R)-4-(N-(2-Hydroxyethyl)sulfamoyl)-N-(6-(2-methylmorpholino)pyridin-2-yl)-2-(6-azaspiro[2.5]octan-6-yl)benzamide] | 16
Cc1cc(NC(=O)c2ccc(S(=O)(=O)NCCO)cc2N2CCC3(CC2)CC3)nc(N2CCC(F)(F)CC2)c1 [Example 1-2, N-(6-(4,4-Difluoropiperidin-1-yl)-4-methylpyridin-2-yl)-4-(N-(2-hydroxyethyl)sulfamoyl)-2-(6-azaspiro[2.5]octan-6-yl)benzamide] | 32
CNS(=O)(=O)c1ccc(C(=O)Nc2cccc(N3CCO[C@H](C)C3)n2)c(N2CCC3(CC2)CC3)c1 [Example 1-3, (R)-N-(6-(2-Methylmorpholino)pyridin-2-yl)-4-(N-methylsulfamoyl)-2-(6-azaspiro[2.5]octan-6-yl)benzamide] | 44
C[C@@H]1CN(c2cccc(NC(=O)c3ccc(S(=O)(=O)NC(C)(C)CO)cc3N3CCC4(CC3)CC4)n2)CCO1 [Example 1-4, (R)-4-(N-(1-Hydroxy-2-methylpropan-2-yl)sulfamoyl)-N-(6-(2-methylmorpholino)pyridin-2-yl)-2-(6-azaspiro[2.5]octan-6-yl)benzamide] | 46
CC(CO)NS(=O)(=O)c1ccc(C(=O)Nc2cccc(N3CCO[C@H](C)C3)n2)c(N2CCC3(CC2)CC3)c1 (stereo partly drawn) [Example 1-5, 4-(N-(1-Hydroxypropan-2-yl)sulfamoyl)-N-(6-((R)-2-methylmorpholino)pyridin-2-yl)-2-(6-azaspiro[2.5]octan-6-yl)benzamide] | 47
C[C@@H]1CN(c2cccc(NC(=O)c3ccc(S(=O)(=O)NC(C)(C)C)cc3N3CCC4(CC3)CC4)n2)CCO1 [Example 1-6, (R)-4-(N-(tert-Butyl)sulfamoyl)-N-(6-(2-methylmorpholino)pyridin-2-yl)-2-(6-azaspiro[2.5]octan-6-yl)benzamide] | 51
C[C@@H]1CN(c2cccc(NC(=O)c3ccc(S(=O)(=O)N4CCC4)cc3N3CCC4(CC3)CC4)n2)CCO1 [Example 1-7, (R)-4-(Azetidin-1-ylsulfonyl)-N-(6-(2-methylmorpholino)pyridin-2-yl)-2-(6-azaspiro[2.5]octan-6-yl)benzamide] | 67
Cc1cc(NC(=O)c2ccc(S(=O)(=O)NC3(C)COC3)cc2N2CCC3(CC2)CC3)nc(N2CCO[C@H](C)C2)c1 [Example 1-8, (R)-N-(4-Methyl-6-(2-methylmorpholino)pyridin-2-yl)-4-(N-(3-methyloxetan-3-yl)sulfamoyl)-2-(6-azaspiro[2.5]octan-6-yl)benzamide] | 119
CCC(CO)NS(=O)(=O)c1ccc(C(=O)Nc2cccc(N3CCO[C@H](C)C3)n2)c(N2CCC3(CC2)CC3)c1 (stereo partly drawn) [Example 1-9, 4-(N-(1-Hydroxybutan-2-yl)sulfamoyl)-N-(6-((R)-2-methylmorpholino)pyridin-2-yl)-2-(6-azaspiro[2.5]octan-6-yl)benzamide] | 120
Cc1cc(NC(=O)c2ccc(S(=O)(=O)NC(C)(C)C)cc2N2CCC3(CC2)CC3)nc(N2CCOCC2)c1 [Example 1-10, 4-(N-(tert-Butyl)sulfamoyl)-N-(4-methyl-6-morpholinopyridin-2-yl)-2-(6-azaspiro[2.5]octan-6-yl)benzamide] | 222
C[C@@H]1CN(c2cccc(NC(=O)c3ccc(S(=O)(=O)N4CC(C)(C)C4)cc3N3CCC4(CC3)CC4)n2)CCO1 [Example 1-11, (R)-4-((3,3-Dimethylazetidin-1-yl)sulfonyl)-N-(6-(2-methylmorpholino)pyridin-2-yl)-2-(6-azaspiro[2.5]octan-6-yl)benzamide] | 566
C[C@@H]1CN(c2cccc(NC(=O)c3ccc(S(=O)(=O)N4CC(C)(C#N)C4)cc3N3CCC4(CC3)CC4)n2)CCO1 [Example 1-12, (R)-4-((3-Cyano-3-methylazetidin-1-yl)sulfonyl)-N-(6-(2-methylmorpholino)pyridin-2-yl)-2-(6-azaspiro[2.5]octan-6-yl)benzamide] | 458
C[C@@H]1CN(c2cccc(NC(=O)c3ccc(S(=O)(=O)N4CC(C#N)C4)cc3N3CCC4(CC3)CC4)n2)CCO1 [Example 1-13, (R)-4-((3-Cyanoazetidin-1-yl)sulfonyl)-N-(6-(2-methylmorpholino)pyridin-2-yl)-2-(6-azaspiro[2.5]octan-6-yl)benzamide] | 209
CC(C)S(=O)(=O)c1ccc(C(=O)Nc2cccc(N3CCO[C@H](C)C3)n2)c(N2CCC3(CC2)CC3)c1 [Example 2, (R)-4-(Isopropylsulfonyl)-N-(6-(2-methylmorpholino)pyridin-2-yl)-2-(6-azaspiro[2.5]octan-6-yl)benzamide] | 34

Further lines, results first:

IC50 [nM] | Compound
85 | C[C@@H]1CN(c2cccc(NC(=O)c3ccc(S(=N)(=O)C4CC4)cc3N3CCC4(CC3)CC4)n2)CCO1 (single isomer, unassigned) [Example 12-1]
43 | C[C@@H]1CN(c2cccc(NC(=O)c3ccc(S(=N)(=O)C4CC4)cc3N3CCC4(CC3)CC4)n2)CCO1 (single isomer, unassigned) [Example 12-2]
199 | C[C@@H]1CN(c2cccc(NC(=O)c3ccc([S@](=N)(=O)C(C)(C)C)cc3N3CCC4(CC3)CC4)n2)CCO1 (single isomer, unassigned) [Example 13-1]
182 | C[C@@H]1CN(c2cccc(NC(=O)c3ccc([S@@](=N)(=O)C(C)(C)C)cc3N3CCC4(CC3)CC4)n2)CCO1 (single isomer, unassigned) [Example 13-2]
418 | C[C@@H]1CN(c2cccc(NC(=O)c3ccc(S(C)(=N)=O)cc3N3CCC4(CC3)CC4)n2)CCO1 (single isomer, unassigned) [Example 13-3]
22 | N=S(=O)(c1ccc(C(=O)Nc2cccc(OCCC(F)(F)F)n2)c(N2CCC3(CC2)CC3)c1)C1CC1 (single isomer, unassigned) [Example 27-1, 2-(6-Azaspiro[2.5]octan-6-yl)-4-(S-cyclopropylsulfonimidoyl)-N-(6-(3,3,3-trifluoropropoxy)-2-pyridinyl)benzamide]
16 | N=[S@@](=O)(c1ccc(C(=O)Nc2cccc(OCCC(F)(F)F)n2)c(N2CCC3(CC2)CC3)c1)C1CC1 (single isomer, unassigned) [Example 27-2, 2-(6-Azaspiro[2.5]octan-6-yl)-4-(R-cyclopropylsulfonimidoyl)-N-(6-(3,3,3-trifluoropropoxy)-2-pyridinyl)benzamide]
71 | Cc1cc(NC(=O)c2ccc(S(=N)(=O)C3CC3)cc2N2CCC3(CC2)CC3)nc(N2CC(F)(F)C2)c1 (single isomer, unassigned) [Example 28-1, 2-(6-Azaspiro[2.5]octan-6-yl)-4-(S-cyclopropylsulfonimidoyl)-N-(6-(3,3-difluoro-1-azetidinyl)-4-methyl-2-pyridinyl)benzamide]
165 | Cc1cc(NC(=O)c2ccc(S(=N)(=O)C3CC3)cc2N2CCC3(CC2)CC3)nc(N2CCO[C@H](C)C2)c1 (single isomer, unassigned) [Example 29-1]
81 | Cc1cc(NC(=O)c2ccc([S@](=N)(=O)C3CC3)cc2N2CCC3(CC2)CC3)nc(N2CCC(F)(F)CC2)c1 (single isomer, unassigned) [Example 30-1, 2-(6-Azaspiro[2.5]octan-6-yl)-4-(S-cyclopropylsulfonimidoyl)-N-(6-(4,4-difluoro-1-piperidinyl)-4-methyl-2-pyridinyl)benzamide]
154 | C[C@@H]1CN(c2cccc(NC(=O)c3ccc(S(C)(=N)=O)cc3N3CCC4(CC3)CC4)n2)CCO1 (stereo in doubt) [Example 13-4, 2-(6-Azaspiro[2.5]octan-6-yl)-N-(6-((2R)-2-methyl-4-morpholinyl)-2-pyridinyl)-4-(R-methylsulfonimidoyl)benzamide]
37 | Cc1cc(NC(=O)c2ccc(S(=N)(=O)C3CC3)cc2N2CCC3(CC2)CC3)nc(N2CC(F)(F)C2)c1 (stereo in doubt) [Example 28-2, 2-(6-Azaspiro[2.5]octan-6-yl)-4-(R-cyclopropylsulfonimidoyl)-N-(6-(3,3-difluoro-1-azetidinyl)-4-methyl-2-pyridinyl)benzamide]
59 | Cc1cc(NC(=O)c2ccc(S(=N)(=O)C3CC3)cc2N2CCC3(CC2)CC3)nc(N2CCO[C@H](C)C2)c1 (stereo in doubt) [Example 29-2, 2-(6-Azaspiro[2.5]octan-6-yl)-4-(R-cyclopropylsulfonimidoyl)-N-(4-methyl-6-((2R)-2-methyl-4-morpholinyl)-2-pyridinyl)benzamide]
42 | Cc1cc(NC(=O)c2ccc(S(=N)(=O)C3CC3)cc2N2CCC3(CC2)CC3)nc(N2CCC(F)(F)CC2)c1 (stereo in doubt) [Example 30-2, 2-(6-Azaspiro[2.5]octan-6-yl)-4-(R-cyclopropylsulfonimidoyl)-N-(6-(4,4-difluoro-1-piperidinyl)-4-methyl-2-pyridinyl)benzamide]
32 | C[C@@H]1CN(c2cccc(NC(=O)c3ccc(S(=O)(=O)CCO)cc3N3CCC4(CC3)CC4)n2)CCO1 [Example 2-1, (R)-4-((2-Hydroxyethyl)sulfonyl)-N-(6-(2-methylmorpholino)pyridin-2-yl)-2-(6-azaspiro[2.5]octan-6-yl)benzamide]
78 | C[C@@H]1CN(c2cccc(NC(=O)c3ccc(S(=O)(=O)C(C)(C)C)cc3N3CCC4(CC3)CC4)n2)CCO1 [Example 2-2, (R)-4-(tert-Butylsulfonyl)-N-(6-(2-methylmorpholino)pyridin-2-yl)-2-(6-azaspiro[2.5]octan-6-yl)benzamide]
